{"source": "patent US20090123907A1", "about": "(priority 2004, published 2009)", "key": {"plasma proteins [1]": {"system": "plasma proteins", "assay": "Protein resistance to 56° C. treatment", "settings": "Na citrate 0.4%, lysine citrate 2.0%", "text": "(§1) […]. In many cases heat treatments have been used to reduce or eliminated infectious agents from blood products. A problem with such an approach has been heat induced changes in the antigenicity of certain blood components. […]. A continuation of this experiment was set up to check also long term room temperature stability. It is generally believed that resistance to heat is an indicator of room temperature stability. That is the justification for estimating long term stability of products by using “accelerated” stability tests based on storage at an elevated temperature. In the presented experiment it is important to note that different plasma sample were used for the two different anticoagulants because a single sample was not large enough to provide sufficient volume for all of the tests over the life of the extended experiment."}, "plasma proteins [2]": {"system": "plasma proteins", "assay": "Protein resistance to room temperature aging", "settings": "Na citrate 0.4%, lysine citrate 2%", "text": "as §1\nIt was anticipated that protection against damage due to elevated temperature would also provide greater stability at room temperature. It will be appreciated that the need to rapidly freeze plasma to ensure stability and the need to freeze or refrigerate plasma for transport greatly complicates the use of plasma under situations of war or emergency or in developing countries where refrigeration may not be readily available. […] […]. […] […]. Although great effort is taken to ensure sterility of the plasma, any blood product procured by means of venipuncture may become contaminated by skin bacteria. […] […]. Those proteins that do lose activity decrease only slightly as compared to much more dramatic decreases in sodium citrate storage."}, "red blood cells": {"system": "red blood cells", "assay": "Red blood cell integrity during storage at 4° C.", "format": "cell-based", "parameters": "MCV Day 20 / MCV Day 33: unit not given here", "settings": "for RBC Day 1: whole blood; for MCV Day 20 / MCV Day 33: whole blood stored at 4° C.", "method": "In this experiment whole blood (an aliquot of which clotted within 10 minutes without anticoagulant) was modified by adding a number of different anticoagulant compositions. Sodium citrate was used as an anticoagulant at 0.65%, 0.75% and 0.9% by weight. These are all higher citrate levels than the usual 0.4% by weight. Amino acid citrates (lysine or arginine) were used at 0.65%, 0.75% and 0.9% by weight based on the weight of the citric acid. The amino acid counterion was used in sufficient quantity to adjust the pH as explained above.\nTo judge red cell condition the blood was counted and various other measurements were taken initially and after 20 and 33 days of storage at 4° C. Apparent initial/differences in RBC counts are due to dilution caused by adding extra anticoagulant. Mean cell volume (MCV) is a red cell index that is a useful measure of red cell health. […] It is believed that a citrate level of at least about 1.0% by weight (i.e., more than two times the usual amount) is necessary to ensure against all activation of plasma proteins. […] On the other hand, amino acid citrates, which are very effective anticoagulants, are also effective at preventing red cell damage."}, "[3]": {"assay": "Level of calcium measured in blood with citrate anticoagulants", "text": "Lysine citrate is compared to traditional sodium citrate. The various citrate levels are expressed as a weight percentage of citrate so that equivalent levels have the same amount of citrate. The same blood was used throughout so that all of the samples started with the same calcium concentration. Since citrate is an effective chelator of calcium one expects the measured level of calcium to decrease with increasing levels of citrate as more and more of the calcium is “tied up” by the citrate. There is an equilibrium between free measurable calcium and calcium associated with citrate molecules. As the concentration of citrate is increased, calcium levels are lowered as there is a higher and higher probability that a given calcium ion will be interacting with a citrate molecule. […] There are at least two different ways of interpreting phenomenon. It is possible that when lysine molecules interact with citrate molecules, the interaction somehow prevents the chelation of calcium. This would explain the higher calcium measurements because there would effectively be a lower level of citrate present. […] That too would explain the higher measured calcium level but does little to solve the remainder of the conundrum. […] Thus, another advantage of lysine citrate is enhanced patient safety and a simpler plasmapheresis set up since it will not longer be necessary to administer protective doses of calcium."}, "plasma proteins [4]": {"system": "plasma proteins", "assay": "Protein resistance to glass beads", "settings": "Na citrate 0.4%, lysine citrate 2.0%", "text": "The above experiment was repeated using glass beads as a denaturing agent. Generally, contact of blood plasma with glass surfaces results in activation or denaturation. […]."}, "[5]": {"settings": "Post 56° C. for five minutes, plasma"}, "[6]": {"settings": "Post 30 min rocking with glass beads"}}, "data": [{"smiles": "O=C([O-])CC(O)(CC(=O)[O-])C(=O)[O-].[Na+].[Na+].[Na+]", "note": "[Na Citrate, sodium citrate, reference compound]", "values": [{"measurement": "Alk. Phos", "setting": "plasma proteins [1]; [5]", "value": 23, "unit": "IU/.L"}, {"measurement": "LDH", "setting": "plasma proteins [1]; [5]", "value": 84, "unit": "IU/L"}, {"measurement": "SGOT", "setting": "plasma proteins [1]; [5]", "value": 15, "unit": "IU/L"}, {"measurement": "SGPT", "setting": "plasma proteins [1]; [5]", "value": 21, "unit": "IU/L"}, {"measurement": "fIX", "setting": "plasma proteins [1]; [5]", "value": 67, "unit": "%"}, {"measurement": "fV", "setting": "plasma proteins [1]; [5]", "value": 45, "unit": "%"}, {"measurement": "fVIII", "setting": "plasma proteins [1]; [5]", "value": 56, "unit": "%"}, {"measurement": "fibrinogen", "setting": "plasma proteins [1]; [5]", "value": 15, "unit": "mg/dL"}, {"measurement": "Alk. Phos", "setting": "plasma proteins [1]; before heating, fresh plasma", "value": 30, "unit": "IU/.L"}, {"measurement": "LDH", "setting": "plasma proteins [1]; before heating, fresh plasma", "value": 110, "unit": "IU/L"}, {"measurement": "SGOT", "setting": "plasma proteins [1]; before heating, fresh plasma", "value": 18, "unit": "IU/L"}, {"measurement": "SGPT", "setting": "plasma proteins [1]; before heating, fresh plasma", "value": 32, "unit": "IU/L"}, {"measurement": "fIX", "setting": "plasma proteins [1]; before heating, fresh plasma", "value": 104, "unit": "%"}, {"measurement": "fV", "setting": "plasma proteins [1]; before heating, fresh plasma", "value": 98, "unit": "%"}, {"measurement": "fVIII", "setting": "plasma proteins [1]; before heating, fresh plasma", "value": 109, "unit": "%"}, {"measurement": "fibrinogen", "setting": "plasma proteins [1]; before heating, fresh plasma", "value": 206, "unit": "mg/dL"}, {"measurement": "Alk. Phos", "setting": "plasma proteins [2]; 0 days at room temperature", "value": 30, "unit": "IU/.L"}, {"measurement": "LDH", "setting": "plasma proteins [2]; 0 days at room temperature", "value": 110, "unit": "IU/L"}, {"measurement": "SGOT", "setting": "plasma proteins [2]; 0 days at room temperature", "value": 18, "unit": "IU/L"}, {"measurement": "SGPT", "setting": "plasma proteins [2]; 0 days at room temperature", "value": 32, "unit": "IU/L"}, {"measurement": "fIX", "setting": "plasma proteins [2]; 0 days at room temperature", "value": 104, "unit": "%"}, {"measurement": "fV", "setting": "plasma proteins [2]; 0 days at room temperature", "value": 98, "unit": "%"}, {"measurement": "fVIII", "setting": "plasma proteins [2]; 0 days at room temperature", "value": 109, "unit": "%"}, {"measurement": "fibrinogen", "setting": "plasma proteins [2]; 0 days at room temperature", "value": 206, "unit": "mg/dL"}, {"measurement": "Alk. Phos", "setting": "plasma proteins [2]; 7 days at room temperature", "value": 29, "unit": "IU/.L"}, {"measurement": "LDH", "setting": "plasma proteins [2]; 7 days at room temperature", "value": 111, "unit": "IU/L"}, {"measurement": "SGOT", "setting": "plasma proteins [2]; 7 days at room temperature", "value": 18, "unit": "IU/L"}, {"measurement": "SGPT", "setting": "plasma proteins [2]; 7 days at room temperature", "value": 30, "unit": "IU/L"}, {"measurement": "fIX", "setting": "plasma proteins [2]; 7 days at room temperature", "value": 107, "unit": "%"}, {"measurement": "fV", "setting": "plasma proteins [2]; 7 days at room temperature", "value": 102, "unit": "%"}, {"measurement": "fVIII", "setting": "plasma proteins [2]; 7 days at room temperature", "value": 100, "unit": "%"}, {"measurement": "fibrinogen", "setting": "plasma proteins [2]; 7 days at room temperature", "value": 181, "unit": "mg/dL"}, {"measurement": "Alk. Phos", "setting": "plasma proteins [2]; 14 days at room temperature", "value": 31, "unit": "IU/.L"}, {"measurement": "LDH", "setting": "plasma proteins [2]; 14 days at room temperature", "value": 108, "unit": "IU/L"}, {"measurement": "SGOT", "setting": "plasma proteins [2]; 14 days at room temperature", "value": 15, "unit": "IU/L"}, {"measurement": "SGPT", "setting": "plasma proteins [2]; 14 days at room temperature", "value": 26, "unit": "IU/L"}, {"measurement": "fIX", "setting": "plasma proteins [2]; 14 days at room temperature", "value": 93, "unit": "%"}, {"measurement": "fV", "setting": "plasma proteins [2]; 14 days at room temperature", "value": 102, "unit": "%"}, {"measurement": "fVIII", "setting": "plasma proteins [2]; 14 days at room temperature", "value": 92, "unit": "%"}, {"measurement": "fibrinogen", "setting": "plasma proteins [2]; 14 days at room temperature", "value": 173, "unit": "mg/dL"}, {"measurement": "Alk. Phos", "setting": "plasma proteins [2]; 21 days at room temperature", "value": 28, "unit": "IU/.L"}, {"measurement": "LDH", "setting": "plasma proteins [2]; 21 days at room temperature", "value": 103, "unit": "IU/L"}, {"measurement": "SGOT", "setting": "plasma proteins [2]; 21 days at room temperature", "value": 12, "unit": "IU/L"}, {"measurement": "SGPT", "setting": "plasma proteins [2]; 21 days at room temperature", "value": 20, "unit": "IU/L"}, {"measurement": "fIX", "setting": "plasma proteins [2]; 21 days at room temperature", "value": 56, "unit": "%"}, {"measurement": "fV", "setting": "plasma proteins [2]; 21 days at room temperature", "value": 44, "unit": "%"}, {"measurement": "fVIII", "setting": "plasma proteins [2]; 21 days at room temperature", "value": 78, "unit": "%"}, {"measurement": "fibrinogen", "setting": "plasma proteins [2]; 21 days at room temperature", "value": 167, "unit": "mg/dL"}, {"measurement": "RBC Day 1", "setting": "red blood cells; anticoagulant 0.65 wgt %", "value": "5.43 10^6/μl"}, {"measurement": "MCV Day 20", "setting": "red blood cells; anticoagulant 0.65 wgt %", "value": 97.1}, {"measurement": "MCV Day 33", "setting": "red blood cells; anticoagulant 0.65 wgt %", "value": 94.3}, {"measurement": "RBC Day 1", "setting": "red blood cells; anticoagulant 0.75 wgt %", "value": "5.86 10^6/μl"}, {"measurement": "MCV Day 20", "setting": "red blood cells; anticoagulant 0.75 wgt %", "value": 98.7}, {"measurement": "MCV Day 33", "setting": "red blood cells; anticoagulant 0.75 wgt %", "value": 103.2}, {"measurement": "RBC Day 1", "setting": "red blood cells; anticoagulant 0.90 wgt %", "value": "6.07 10^6/μl"}, {"measurement": "MCV Day 20", "setting": "red blood cells; anticoagulant 0.90 wgt %", "value": 97.8}, {"measurement": "MCV Day 33", "setting": "red blood cells; anticoagulant 0.90 wgt %", "value": 103.3}, {"measurement": "Level of calcium measured", "setting": "[3]; Citrate Level 0.01%", "value": 9.2, "unit": "mg/dL"}, {"measurement": "Level of calcium measured", "setting": "[3]; Citrate Level 0.05%", "value": 8.7, "unit": "mg/dL"}, {"measurement": "Level of calcium measured", "setting": "[3]; Citrate Level 0.1%", "value": 5.3, "unit": "mg/dL"}, {"measurement": "Level of calcium measured", "setting": "[3]; Citrate Level 0.25%", "value": 2.5, "unit": "mg/dL"}, {"measurement": "Level of calcium measured", "setting": "[3]; Citrate Level 0.5%", "value": 0.6, "unit": "mg/dL"}, {"measurement": "Level of calcium measured", "setting": "[3]; Citrate Level 1%", "value": 0, "unit": "mg/dL"}, {"measurement": "Alk. Phos", "setting": "plasma proteins [4]; [6]", "value": 16, "unit": "IU/.L"}, {"measurement": "LDH", "setting": "plasma proteins [4]; [6]", "value": 24, "unit": "IU/L"}, {"measurement": "SGOT", "setting": "plasma proteins [4]; [6]", "value": 1, "unit": "IU/L"}, {"measurement": "SGPT", "setting": "plasma proteins [4]; [6]", "value": 1, "unit": "IU/L"}, {"measurement": "fIX", "setting": "plasma proteins [4]; [6]", "value": 14, "unit": "%"}, {"measurement": "fV", "setting": "plasma proteins [4]; [6]", "value": 15, "unit": "%"}, {"measurement": "fVIII", "setting": "plasma proteins [4]; [6]", "value": 29, "unit": "%"}, {"measurement": "fibrinogen", "setting": "plasma proteins [4]; [6]", "value": 88, "unit": "mg/dL"}, {"measurement": "Alk. Phos", "setting": "plasma proteins [4]; Pre glass beads", "value": 27, "unit": "IU/.L"}, {"measurement": "LDH", "setting": "plasma proteins [4]; Pre glass beads", "value": 100, "unit": "IU/L"}, {"measurement": "SGOT", "setting": "plasma proteins [4]; Pre glass beads", "value": 15, "unit": "IU/L"}, {"measurement": "SGPT", "setting": "plasma proteins [4]; Pre glass beads", "value": 29, "unit": "IU/L"}, {"measurement": "fIX", "setting": "plasma proteins [4]; Pre glass beads", "value": 103, "unit": "%"}, {"measurement": "fV", "setting": "plasma proteins [4]; Pre glass beads", "value": 98, "unit": "%"}, {"measurement": "fVIII", "setting": "plasma proteins [4]; Pre glass beads", "value": 102, "unit": "%"}, {"measurement": "fibrinogen", "setting": "plasma proteins [4]; Pre glass beads", "value": 258, "unit": "mg/dL"}]}]}
